What was measured:
fetal rat bones = assay: 45-Ca++ release (bone resorption) from explants of fetal rat bones stimulated by PTH or lymphokine (OAF); assay type: cell-based; conditions: for 45-Ca++ release after stimulation by PTH or lymphokine (dose dependence): 48 hrs preincubation; for 45-Ca++ release expt'l / 45-Ca++ release control (E/C): control 1.00 ± .06; for 45-Ca++ release, gallium alone: without added PTH or lymphokine, vs control bones
Method: The effects of gallium nitrate on bone resorption in vitro were studied using explants of fetal rat bones (Bockman, R. S. and Repo, M. A., J Exp Med 154:529, 1981). Pregnant rats were injected with 0.2-0.4 mCi of 45-CaC12 on the 18th day of gestation. After 2 days of bone mineralization in utero, the radii and ulnae of fetal rats were explanted and placed on stainless steel rafts in BGJ media. Calcium releases from bone was stimulated by the addition of bovine PTH (2.0 microM, final concentration)or a lymphokine (OAF) preparation (10% of final volume). Gallium nitrate was added to the culture media at final concentration of 1, 5 and 10 mcg/ml simultaneously with--and 18 or 48 hours prior to--the addition of the bone-resorbing factors. After 48 hours of exposure to lymphokine or PTH, calcium release was determined by counting the supernatant media in a liquid scintillation counter. Data were expressed as the ratio of calcium release in counts per minute (cpm) of the experimental bone (treated or untreated with gallium nitrate and a resorbing factor) to cpm release by a paired control bone (treated or untreated with gallium nitrate) [cpm experimental/cpm control=E/C] Forty-nine bones were used to establish control values; 4-22 bones were used to obtain each of the experimental points. […]

explanted bones = assay: PGE2 release from explanted fetal rat bones; assay type: cell-based
[1] = tested on: bone cells (particularly osteoclasts); assay: histology of cultured rat bones (toxicity to bone cells); assay type: cell-based
From the text: Samples of cultured rat bones used in experiments previously described herein were fixed, decalcified and stained with hematoxylin and eosin. Histologic sections were examined by light microscopy.

[2] = tested on: bone mineral (metaphysis); assay: gallium incorporation into bone mineral, X-ray diffraction; assay type: in vivo, rats
From the text: Conceivably, gallium promotes or stabilizes crystal structure to produce matrix with more crystalline hydroxyapatite, or the drug promotes growth rather than dissolution of smaller crystallites.

[3] = resorption of devitalized bone particles from treated rats; conditions: particles from treated rats vs controls
From the text: Devitalized bone particles (i.e. bones containing only mineral and matrix without any cellular component) were studied.

calcium metabolism = assay: metabolic study of patients receiving gallium nitrate (calcium homeostasis); assay type: in vivo
From the text: (§1) As with most anticancer drugs, gallium can potentially cause serious toxicity. The most serious side-effect being kidney damage. […] Furthermore, the anti bone-resorptive effects of gallium nitrate are achieved with less than 25-50% of the anticancer dose. Thus the method should retain safety and efficacy for prolonged periods of time.
Experimental Results: Studies of calcium homeostasis require an assessment of multiple factors including dietary intake, excretion of calcium into urine and stool, and analysis of calcium mobilization from body stores (chiefly bone). Four patients who participated in a careful study of the effects of gallium nitrate upon calcium metabolism were thus assessed. Patients were hospitalized and received a diet of defined calcium, sodium, and fluid intake. Measurements of calcium excretion into urine and stool (along with multiple other laboratory tests) were made daily during a 6-day baseline period and during a subsequent treatment period using gallium nitrate. The drug was administered as a continuous infusion at a dose of 300 mg/sq m/day for durations ranging from 4-7 days.

[4] = tested on: cancer-related hypercalcemia; assay: treatment of cancer-related hypercalcemia with gallium nitrate; assay type: in vivo, patients; conditions: for Serum calcium, Post-Treatment: 100 mg/sq m/d × 5 d; for Total Serum Calcium, Post-Treatment: 200 mg/sq m/d × 5-7 d
Method: Summary: In the initial study, gallium nitrate was used for the treatment of 10 patients with cancer-related hypercalcemia. The daily dose of drug was 200 mg/sq m administered as a continuous infusion for durations ranging from 5-7 days. The diagnoses of this patient population and the change in total serum calcium concentration in response to this therapy are presented in Table 4a.
The subsequent increase of their disease was not accompanied by an increase in serum calcium which indicates a persistent control of the metabolic problem despite lack of control of the underlying cancer. All other patients who received the drug manifested progressive cancer despite control of the hypercalcemia. […] In a subsequent study, we further reduced the daily dose of gallium nitrate to 100 mg/sq m administered for 5 days. At a lower dose, 5 of 8 patients were normalized (Table 4b). These preliminary clinical results reflect our preclinical studies previously detailed, namely that there exists a distinct dose-response relation to the anti-calcium effect (Warrell, R. P. Jr, Bockman, R. S. et al, J. Clin. Invest. 73:1487 (1984 )).

kidney [5] = assay: clinical toxicity of gallium (kidney damage, long-term infusion); assay type: in vivo, patients; conditions: printed 22+ months
From the text: as §1

[6] = intravenous infusion, clinical dose; Kelsen et al 1980; cited from earlier work
kidney [7] = conditions: Leyland-Jones et al 1983; cited from earlier work
[8] = 48 h preincubation, 1, 5 and 10 mcg/ml
[9] = 4 patients, continuous infusion 300 mg/sq m/day, 4-7 days

O=[N+]([O-])[O-].O=[N+]([O-])[O-].O=[N+]([O-])[O-].[Ga+3] [gallium nitrate]
45-Ca++ release after stimulation by PTH or lymphokine (dose dependence) (fetal rat bones; 1 mcg/ml): no significant change | 45-Ca++ release after stimulation by PTH or lymphokine (dose dependence) (fetal rat bones; 5 and 10 mcg/ml, P less than 0.025): significant and dose-related reductions | 45-Ca++ release (time dependence) (fetal rat bones; 10 mcg/ml simultaneously with (time 0) or 18 hrs preceding PTH or lymphokine): the reduction was not statistically significant | 45-Ca++ release (fetal rat bones; [8]): dose dependent decrease | 45-Ca++ release expt'l / 45-Ca++ release control (E/C) (fetal rat bones; PTH-stimulated, gallium 1 mcg/ml, 48 h preincubation, 0 gallium: 1.21 ± 0.15): 1.24 | 45-Ca++ release expt'l / 45-Ca++ release control (E/C) (fetal rat bones; PTH-stimulated, gallium 5 mcg/ml, 48 h preincubation, 0 gallium: 1.21 ± 0.15): 1.08 | 45-Ca++ release expt'l / 45-Ca++ release control (E/C) (fetal rat bones; PTH-stimulated, gallium 10 mcg/ml, 48 h preincubation, 0 gallium: 1.21 ± 0.15): 0.99 | 45-Ca++ release expt'l / 45-Ca++ release control (E/C) (fetal rat bones; lymphokine-stimulated, gallium 1 mcg/ml, 48 h preincubation, 0 gallium: 1.59 ± .1): 1.54 ± .16 | 45-Ca++ release expt'l / 45-Ca++ release control (E/C) (fetal rat bones; lymphokine-stimulated, gallium 5 mcg/ml, 48 h preincubation, 0 gallium: 1.59 ± .1): 1.21 ± .04 | 45-Ca++ release expt'l / 45-Ca++ release control (E/C) (fetal rat bones; lymphokine-stimulated, gallium 10 mcg/ml, 48 h preincubation, 0 gallium: 1.59 ± .1): 1.23 ± .04 | lymphokine-induced 45-Ca++ release (time dependence) (fetal rat bones; pre-incubation 48 hours preceding lymphokine, 10 mcg/ml): highly significant reduction | calcium release induced by PTH and by factor similar to OAF (fetal rat bones; summary, inhibition time- and dose-dependent): inhibits calcium release induced by both of these substances | 45-Ca++ release, gallium alone (fetal rat bones): No increase in bone calcium release | 45-Ca++ release, gallium alone (fetal rat bones; listed as gallium): did not have any effect on 45-Ca++ release | PGE2 release from explanted bones (explanted bones; 10 mcg/ml, 24-48 h, vs non-treated bones): no change in PGE2 over control | PGE2 release (explanted bones; [8]): no significant change in PGE2 release | PGE2 (explanted bones; PTH, gallium 1 mcg/ml, 48 h preincubation, 0 gallium: 1.4, control 1.2): 2.2 ng/bone | PGE2 (explanted bones; PTH, gallium 5 mcg/ml, 48 h preincubation, 0 gallium: 1.4, control 1.2): 1.3 ng/bone | PGE2 (explanted bones; PTH, gallium 10 mcg/ml, 48 h preincubation, 0 gallium: 1.4, control 1.2): 3.9 ng/bone | PGE2 release of gallium treated bones on exposure to lymphokine, but not PTH (explanted bones; gallium treated bones exposed to lymphokine): significant increase in PGE2 release | PGE2 (explanted bones; lymphokine, gallium 1 mcg/ml, 48 h preincubation, 0 gallium: 17.1, control 2.0): 17.4 ng/bone | PGE2 (explanted bones; lymphokine, gallium 5 mcg/ml, 48 h preincubation, 0 gallium: 17.1, control 2.0): 16.7 ng/bone | PGE2 (explanted bones; lymphokine, gallium 10 mcg/ml, 48 h preincubation, 0 gallium: 17.1, control 2.0): 15.1 ng/bone | lethal toxicity to bone cells ([1]; pharmacologic concentrations): do not cause lethal toxicity to bone cells | cellular components (histology) ([1]; pharmacologic concentrations, 72 hrs, compared with mithramycin-treated bones): normal cellular components | bone cell morphology ([1]; relative to untreated control bones, 72 hrs): no differences in bone cell morphology | crystal size in metaphyseal-derived particles (X-ray diffraction) ([2]; gallium treated animals vs controls): marked increase in crystal size | gallium incorporation into bone ([2]; rats treated with gallium nitrate): incorporated into the bone metaphysis where more active bone mineral turnover was occurring and into the metabolically more active crystalline pool | susceptibility of devitalized bone particles to resorption [3]: significantly less susceptible to resorption than controls | calcium excretion relative to baseline (calcium metabolism; [9]): no significant increase in calcium excretion | total serum calcium concentration (calcium metabolism; [9]): reduced by the gallium infusion | dose for anti bone-resorptive effects as share of the anticancer dose (calcium metabolism; of the anticancer dose): 25-50% | urinary calcium excretion (calcium metabolism; patients receiving gallium nitrate): decreased urinary calcium excretion | calcium balance (calcium metabolism; patients while receiving the drug): remained in positive calcium balance | patients normalized ([4]; 100 mg/sq m for 5 days): 5 of 8 | Serum calcium, Post-Treatment ([4]; Patient 1, Breast, pre-treatment 13.9): 11.3 mg/dL | Serum calcium, Post-Treatment ([4]; Patient 2, Anus, pre-treatment 12.7): 6.3 mg/dL | Serum calcium, Post-Treatment ([4]; Patient 3, Kidney, pre-treatment 14.3): 12.0 mg/dL | Serum calcium, Post-Treatment ([4]; Patient 4, Breast, pre-treatment 14.5): 8.7 mg/dL | Serum calcium, Post-Treatment ([4]; Patient 5, Pancreas, pre-treatment 14.6): 10.0 mg/dL | Serum calcium, Post-Treatment ([4]; Patient 6, Myeloma, pre-treatment 15.0): 13.7 mg/dL | Serum calcium, Post-Treatment ([4]; Patient 7, Lung, pre-treatment 13.0): 10.8 mg/dL | Serum calcium, Post-Treatment ([4]; Patient 8, Breast, pre-treatment 17.0): 9.0 mg/dL | response (serum calcium concentration) ([4]; 200 mg/sq m/d continuous infusion 5-7 days, 10 patients): all patients responded to this treatment by a reduction in serum calcium concentration to normal (and frequently sub-normal) values | Total Serum Calcium, Post-Treatment ([4]; Patient 1, Breast, pre-treatment 13.8): 8.9 mg/dL | Total Serum Calcium, Post-Treatment ([4]; Patient 2, Breast, pre-treatment 15.2): 8.5 mg/dL | Total Serum Calcium, Post-Treatment ([4]; Patient 3, Lymphoma, pre-treatment 15.6): 6.6 mg/dL | Total Serum Calcium, Post-Treatment ([4]; Patient 4, Head & Neck, pre-treatment 12.3): 8.5 mg/dL | Total Serum Calcium, Post-Treatment ([4]; Patient 5, Breast, pre-treatment 14.4): 7.7 mg/dL | Total Serum Calcium, Post-Treatment ([4]; Patient 6, Lymphoma, pre-treatment 15.6): 8.6 mg/dL | Total Serum Calcium, Post-Treatment ([4]; Patient 7, Lung, pre-treatment 12.5): 7.0 mg/dL | Total Serum Calcium, Post-Treatment ([4]; Patient 8, Penis, pre-treatment 12.3): 9.3 mg/dL | Total Serum Calcium, Post-Treatment ([4]; Patient 9, Head & Neck, pre-treatment 13.5): 7.8 mg/dL | Total Serum Calcium, Post-Treatment ([4]; Patient 10, Lung, pre-treatment 13.7): 9.3 mg/dL | size of a lymphomatous mass ([4]; 200 mg/sq m/d, Patient 5, followed by progression and death): transient decrease in the size of a lymphomatous mass | anti-cancer effect associated with hypocalcemic effect ([4]; 200 mg/sq m/d, all patients except Patient 5): not associated with any anti-cancer effect | duration of intermittent high-dose infusions without serious toxicity (kidney [5]): ≥ 22 months | steady-state plasma gallium concentration [6]: 0.9 to 2.0 µg/mL | nephrotoxicity (kidney [7]): generally reversible and that it is not cumulative

— patent US4529593A, “Use of gallium salts to treat disorders of calcium homeostasis” (Sloan-Kettering Institute for Cancer Research, priority 1984, dated 1985)
